Assay [1] relates to 22 human preclinical TNBC cell line models. Description: WST assay in TNBC cell lines. In kind it is cell-based. As to conditions: 22 TNBC cell lines, read-out: IC50, WST assays. The source says:
FIGS. 34A-C: Dose response curve of ERX-41 in multiple TNBC. cell lines using WST-1 assays (FIG. 34A) and CellTiter-Glo assays (FIG. 34B). […] Quantification of the number of dead cells over time seen with live cell imaging in MDAMB-231 and HMEC cells is shown.
To evaluate the generalizability of the inventors' findings, they evaluated ERX-41 in a large number of TNBC and ERa-positive cell lines.

The subject of assay [2] is SUM-159 cells with LIPA KO and reconstitution of LIPA. Nature of the assay: Dose response in SUM-159 LIPA KO cells reconstituted with LIPA constructs. In kind it is cell-based. The source says: FIGS. 39A-N: (FIGS. 39A-E) Predicted binding mode of ERX-41 (colored in green) on the human lysosomal acid lipase (LAL, PDB code: 6V7N, LXXLL (SEQ ID NO: 1) domain colored in orange). (FIG. 39F) PDB structure of LAL protein showing relative positions of the catalytic domain (with H274Y MT) and the LXXLL (SEQ ID NO: 1) domain (L242P MT). (FIG. 39G) Evaluation of the effect of ERX-41 and lalistat (known lipase inhibitor) on lipase activity of parental SUM-159 (WT) and SUM-159 cells with LIPA KO. (FIG. 39H) Evaluation of basal lipase activity in parental SUM-159 (WT), SUM-159 cells with LIPA KO (KO), SUM-159 cells with LIPA KO and with reconstitution of either WT LIPA (KO+WT), H274Y MT-LIPA (KO+H274Y), DLXXLL (SEQ ID NO: 2) MT-LIPA (KO+DLXXLL (SEQ ID NO: 2)) or L242P MT-LIPA (KO+L242P). Protein expression of LAL and control vinculin in these cells are shown below (FIG. 391) Cellular lysates from described SUM-159 cells were incubated with biotinylated ERX-11 or biotinylated ERX-41 and then subject to a streptavidin column. Elutants were then evaluated for LIPA pulldown by western blotting. (FIG. 39J) Dose response curve to increasing concentrations of ERX-41 in described SUM-159 cells. (FIGS. 39K-M) Effect of vehicle or 1 μM ERX-41 on induction of UPR genes at the protein level (FIG. 39K) or RNA level (FIGS. 39L-M). […]

SMILES strings stand for the structures.

Usually IC50 stands for the point on the concentration scale where inhibition reaches its midpoint. As for `CC(C)COc1cc(C(=O)Nc2ccc(C(=O)N[C@H]3CC[C@H](C)CC3)cc2OCC(C)C)ccc1NC(=O)c1ccc([N+](=O)[O-])c(OCCO)c1` [TK41], the IC50 in assay [1] was less than 500 nM; in assay [2] (SUM159, KO+WT (WT-LIPA reconstituted)), 250 nM. For the same compound, the “sensitivity after reconstitution of H274Y MT-LIPA” value in assay [2] (KO+H274Y) is “restored sensitivity”.

Values taken from US12275685B2, “Oligo-benzamide analogs and their use in cancer treatment” (Board of Regents, The University of Texas System, priority 2018, dated 2025).
